From ChEMBL document CHEMBL1201862, “PubChem BioAssay data set” (2004)
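Exposure lasted 48 hours, with cells grown in 96-well plates and compounds tested at five concentrations. GI50 = concentration required for 50% inhibition of growth.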 The source made the active and inactive calls. Rule as the data show it: active = GI50 up to about 1.1 µM and inactive = higher.

Legend:
Assay in all cases: NCI-60 cell line screen, 48 h
MDA-N = tested on: MDA-N
UACC-257 = tested on: UACC-257
SK-MEL-5 = tested on: SK-MEL-5
A498 = tested on: A498
MOLT-4 = tested on: MOLT-4
UACC-62 = tested on: UACC-62
HT-29 = tested on: HT-29
NCI/ADR-RES = tested on: NCI/ADR-RES
SR = tested on: SR
KM12 = tested on: KM12
EKVX = tested on: EKVX
NCI-H23 = tested on: NCI-H23
SF-268 = tested on: SF-268
SK-OV-3 = tested on: SK-OV-3
Hs-578T = tested on: Hs-578T
RPMI-8226 = tested on: RPMI-8226
TK-10 = tested on: TK-10
HCT-116 = tested on: HCT-116
Malme-3M = tested on: Malme-3M
PC-3 = tested on: PC-3

Structure (SMILES)	GI50 (MDA-N)	GI50 (UACC-257)	GI50 (SK-MEL-5)	GI50 (A498)	GI50 (MOLT-4)	GI50 (UACC-62)	GI50 (HT-29)	GI50 (NCI/ADR-RES)	GI50 (SR)	GI50 (KM12)	GI50 (EKVX)	GI50 (NCI-H23)	GI50 (SF-268)	GI50 (SK-OV-3)	GI50 (Hs-578T)	GI50 (RPMI-8226)	GI50 (TK-10)	GI50 (HCT-116)	GI50 (Malme-3M)	GI50 (PC-3)
C=C(C)[C@@H](O)[C@H](O)C[C@H](C)C1CC[C@]2(C)C1=CC[C@@H]1[C@@]3(C)CC[C@@H](OC(C)=O)C(C)(C)[C@@H]3C[C@@H](OC3OC(COC(C)=O)C(O)C(O)C3O)[C@]12C (stereo not given in full)	2.81 µM (inactive)	2.89 µM (inactive)	2.1 µM (inactive)	3.36 µM (inactive)	2.17 µM (inactive)	1.9 µM (inactive)	2.02 µM (inactive)	15 µM (inactive)	1.99 µM (inactive)	1.6 µM (inactive)	3.03 µM (inactive)	4.06 µM (inactive)	2.78 µM (inactive)	3.48 µM (inactive)	2.81 µM (inactive)	2.01 µM (inactive)	3.39 µM (inactive)	2.27 µM (inactive)	2.06 µM (inactive)	2.31 µM (inactive)
O=C(O)c1ccccc1/C=N\N=C1NCCN1	> 100 µM (inactive)	> 100 µM (inactive)	> 100 µM (inactive)	> 100 µM (inactive)	> 100 µM (inactive)	> 100 µM (inactive)	> 100 µM (inactive)	> 100 µM (inactive)	> 100 µM (inactive)	> 100 µM (inactive)	> 100 µM (inactive)	> 100 µM (inactive)	> 100 µM (inactive)	> 100 µM (inactive)	> 100 µM (inactive)	> 100 µM (inactive)	> 100 µM (inactive)	> 100 µM (inactive)	> 100 µM (inactive)	> 100 µM (inactive)
Cc1ccc2c(c1)C(=O)c1[nH]c3ccc(F)cc3c1CO2	> 100 µM (inactive)	> 100 µM (inactive)	> 100 µM (inactive)	79.4 µM (inactive)	58.2 µM (inactive)	24.4 µM (inactive)	23.4 µM (inactive)	58.5 µM (inactive)	49.8 µM (inactive)	> 100 µM (inactive)	67.6 µM (inactive)	25.2 µM (inactive)	48 µM (inactive)	15.1 µM (inactive)	17.6 µM (inactive)	39.9 µM (inactive)	31.8 µM (inactive)	17.8 µM (inactive)	26.3 µM (inactive)	84.9 µM (inactive)
Cc1ccc(-c2cc(N)n(-c3nc4c(c(=O)n(C)c(=O)n4C)n3C)n2)cc1	> 100 µM (inactive)	> 100 µM (inactive)	32.4 µM (inactive)	> 100 µM (inactive)	> 100 µM (inactive)	> 100 µM (inactive)	> 100 µM (inactive)	95.1 µM (inactive)	> 100 µM (inactive)	> 100 µM (inactive)	62.2 µM (inactive)	67 µM (inactive)	43.7 µM (inactive)	41 µM (inactive)	60.1 µM (inactive)	> 100 µM (inactive)	> 100 µM (inactive)	> 100 µM (inactive)	45.6 µM (inactive)	> 100 µM (inactive)
Cc1ccc(/C=N/n2c(-c3ccc(C)cc3)n[nH]c2=O)cc1	80.7 µM (inactive)	> 100 µM (inactive)	38.1 µM (inactive)	26.9 µM (inactive)	92.7 µM (inactive)	78 µM (inactive)	> 100 µM (inactive)	59.6 µM (inactive)	25.4 µM (inactive)	> 100 µM (inactive)	> 100 µM (inactive)	29.2 µM (inactive)	> 100 µM (inactive)	28.7 µM (inactive)	> 100 µM (inactive)	> 100 µM (inactive)	60.8 µM (inactive)	54 µM (inactive)	80.5 µM (inactive)	> 100 µM (inactive)
O=[N+]([O-])c1ccc2[nH]nc(OCc3ccccc3Cl)c2c1	> 100 µM (inactive)	> 100 µM (inactive)	26.5 µM (inactive)	37.5 µM (inactive)	63.5 µM (inactive)	29.2 µM (inactive)	> 100 µM (inactive)	25 µM (inactive)	> 100 µM (inactive)	91.4 µM (inactive)	54.2 µM (inactive)	31.9 µM (inactive)	68.7 µM (inactive)	13.8 µM (inactive)	42.3 µM (inactive)	> 100 µM (inactive)	29.9 µM (inactive)	27.4 µM (inactive)	98.9 µM (inactive)	> 100 µM (inactive)
C/C(=N\NC(N)=S)c1sc(-n2nc(-c3ccccc3)cc2-c2ccccc2)nc1C	> 100 µM (inactive)	85.5 µM (inactive)	76.4 µM (inactive)	> 100 µM (inactive)	27.9 µM (inactive)	> 100 µM (inactive)	37.5 µM (inactive)	67.1 µM (inactive)	67.3 µM (inactive)	> 100 µM (inactive)	50.1 µM (inactive)	> 100 µM (inactive)	> 100 µM (inactive)	62.1 µM (inactive)	> 100 µM (inactive)	16.9 µM (inactive)	> 100 µM (inactive)	55.8 µM (inactive)	> 100 µM (inactive)	63.1 µM (inactive)
CC(=O)C(C(c1ccccc1)N1CCOCC1)N1CCOCC1 (stereo not given)	> 100 µM (inactive)	18.5 µM (inactive)	> 100 µM (inactive)	> 100 µM (inactive)	> 100 µM (inactive)	> 100 µM (inactive)	> 100 µM (inactive)	> 100 µM (inactive)	83.9 µM (inactive)	> 100 µM (inactive)	> 100 µM (inactive)	> 100 µM (inactive)	> 100 µM (inactive)	> 100 µM (inactive)	> 100 µM (inactive)	> 100 µM (inactive)	22.6 µM (inactive)	> 100 µM (inactive)	> 100 µM (inactive)	> 100 µM (inactive)
CCC(C)C1NC(=O)C(NC(=O)c2c3nc4c(C(=O)NC5C(=O)NC(C(C)CC)C(=O)N6CCCC6C(=O)N(C)CC(=O)N(C)C(C(C)C)C(=O)OC5C)ccc(C)c4oc-3c(C)c(=O)c2O)C(C)OC(=O)C(C(C)C)N(C)C(=O)CN(C)C(=O)C2CCCN2C1=O (stereo not given)	4.21 µM (inactive)	3.3 µM (inactive)	4.21 µM (inactive)	2.84 µM (inactive)	1.01 µM (active)	1.14 µM (inactive)	1.06 µM (active)	21.9 µM (inactive)	0.119 µM (active)	1.63 µM (inactive)	14.2 µM (inactive)	5.41 µM (inactive)	3.77 µM (inactive)	11.5 µM (inactive)	4.49 µM (inactive)	0.902 µM (active)	10.2 µM (inactive)	0.55 µM (active)	1.98 µM (inactive)	3.99 µM (inactive)
CC(=O)C(CN1CCOCC1)C(c1ccccc1)c1c(O)c2ccccc2oc1=O (stereo not given)	> 100 µM (inactive)	> 100 µM (inactive)	> 100 µM (inactive)	> 100 µM (inactive)	> 100 µM (inactive)	> 100 µM (inactive)	> 100 µM (inactive)	> 100 µM (inactive)	64.7 µM (inactive)	> 100 µM (inactive)	> 100 µM (inactive)	> 100 µM (inactive)	> 100 µM (inactive)	> 100 µM (inactive)	> 100 µM (inactive)	43.1 µM (inactive)	> 100 µM (inactive)	> 100 µM (inactive)	80.9 µM (inactive)	> 100 µM (inactive)
O=C(ON=C1c2ccccc2C(Br)C(Br)c2ccccc21)c1cc([N+](=O)[O-])cc([N+](=O)[O-])c1 (stereo not given)	22.1 µM (inactive)	18 µM (inactive)	16.6 µM (inactive)	17.6 µM (inactive)	7.45 µM (inactive)	18.7 µM (inactive)	16.3 µM (inactive)	19.6 µM (inactive)	0.245 µM (active)	19.4 µM (inactive)	25.4 µM (inactive)	20.3 µM (inactive)	17.8 µM (inactive)	27.1 µM (inactive)	23 µM (inactive)	6.81 µM (inactive)	23.2 µM (inactive)	18.5 µM (inactive)	18.5 µM (inactive)	28.5 µM (inactive)
CC1(C)C(CBr)=[N+]([O-])C(C)(C)N1O	3.99 µM (inactive)	8.99 µM (inactive)	4.16 µM (inactive)	> 10 µM (inactive)	2.57 µM (inactive)	7.59 µM (inactive)	> 8.75 µM (inactive)	> 7.24 µM (inactive)	> 3.74 µM (inactive)	> 10 µM (inactive)	> 5.6 µM (inactive)	3.59 µM (inactive)	9.71 µM (inactive)	> 10 µM (inactive)	> 10 µM (inactive)	> 5.05 µM (inactive)	5.5 µM (inactive)	2.12 µM (inactive)	2.49 µM (inactive)	> 10 µM (inactive)
NC(=O)C1CCCN1Cc1ccc2c(c1)OCO2 (stereo not given)	> 100 µM (inactive)	> 100 µM (inactive)	> 100 µM (inactive)	> 100 µM (inactive)	> 100 µM (inactive)	> 100 µM (inactive)	> 100 µM (inactive)	> 100 µM (inactive)	> 100 µM (inactive)	> 100 µM (inactive)	> 100 µM (inactive)	> 100 µM (inactive)	> 100 µM (inactive)	> 100 µM (inactive)	> 100 µM (inactive)	> 100 µM (inactive)	> 100 µM (inactive)	> 100 µM (inactive)	> 100 µM (inactive)	> 100 µM (inactive)
